Laboratory results: patent US11324832B2, “Tripartite modulators of endosomal G protein-coupled receptors” (Endosome Therapeutics, Inc., priority 2015, dated 2022)
Where a SMILES comes first, the peptide text is derived from it. [ ]: non-standard residue; d: D form. The star is where a group is joined. X1 = CC(C)CCC[C@@H](C)[C@H]1CC[C@H]2[C@@H]3CC[C@H]4C[C@@H](O*)CC[C@]4(C)[C@H]3CC[C@]12C; PEG4 = NCCOCCOCCOCCOCCC(=O)O; PEG3 = NCCOCCOCCOCCC(=O)O

Assays:
β2-adrenergic receptor = molecular target: T1, β2-adrenergic receptor (Homo sapiens, UniProt P07550); experiment: FRET nuclear ERK biosensor, isoprenaline-induced activation in HEK293 cells; type: cell-based; settings: selectivity control, endogenous receptor
T1 construct: endogenous in cells; host or cells: HEK293
T1 sequence (P07550 whole entry): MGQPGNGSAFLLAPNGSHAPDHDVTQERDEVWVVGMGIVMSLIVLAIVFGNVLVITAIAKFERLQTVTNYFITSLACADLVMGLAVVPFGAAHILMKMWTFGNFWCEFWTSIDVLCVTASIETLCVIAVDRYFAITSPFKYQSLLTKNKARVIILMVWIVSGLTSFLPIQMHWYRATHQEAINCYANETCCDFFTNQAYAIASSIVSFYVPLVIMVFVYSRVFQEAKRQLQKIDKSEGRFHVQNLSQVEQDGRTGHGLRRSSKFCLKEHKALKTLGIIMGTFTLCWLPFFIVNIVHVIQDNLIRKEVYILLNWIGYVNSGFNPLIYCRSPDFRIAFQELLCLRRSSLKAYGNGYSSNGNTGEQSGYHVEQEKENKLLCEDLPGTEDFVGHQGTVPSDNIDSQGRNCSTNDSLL
Experimental: (§1) HEK293 cells were transfected with 55 ng/well rat NK1R with N-terminal HA. 11 epitope tag (HA-NK1R) or CLR plus RAMP1 and 40 ng/well FRET biosensors. FRET was assessed 48 h after transfection, following serum restriction (0.5% FBS overnight). For experiments using clathrin or dynamin siRNA, cells were transfected with 55 ng/well rat HA-NK1R, 40 ng/well FRET biosensor and 25 nM/well scrambled, clathrin or dynamin ON-TARGETplus SMARTpool siRNA (GE Dharmacon). FRET was assessed 72 h after transfection, following serum restriction (0.5% FBS overnight). Cells were equilibrated in HBSS at 37° C. and FRET was analyzed using a GE Healthcare INCell 2000 Analyzer. For GFP/RFP emission ratio analysis, cells were sequentially excited using a FITC filter (490/20) with emission measured using dsRed (605/52) and FITC (525/36) filters, and a polychroic optimized for the FITC/dsRed filter pair (Quad4). For CFP/YFP emission ratio analysis, cells were sequentially excited using a CFP filter (430/24) with emission measured using YFP (535/30) and CFP (470/24) filters, and a polychroic optimized for the CFP/YFP filter pair (Quad3). Cells were imaged every 1 min, allowing image capture of 14 wells per minute. Baseline emission ratio images were captured for 4 min. […] Data were analyzed as described and expressed as emission ratios relative to baseline for each cell (F/F0). […]

[1] = Stability in the spinal cord after intrathecal injection to mice; type: in vivo, mouse; settings: 10 μM, 5 μl, spinal cord after 3 hours
Experimental: To assess stability in cerebrospinal fluid, spantide or Compound 1 (10 μg/ml) was incubated in human cerebrospinal fluid (0-4 h, 37° C.), and then snap frozen. Proteins were precipitated using ACN. To assess stability in the spinal cord, spantide or Compound 1 was injected intrathecally to mice (10 μM, 5 μl, L3/L4). After 3 hours, a spinal cord segment 5 mm on either side the injection site was removed and snap frozen. Tissues were crushed with a glass rod in a mixture of methanol (30 μl) and EDTA/KF (60 μl, 0.1 M EDTA, 4 g/l KF), vortexed and centrifuged to remove lipids. Peptides were extracted from the pellet with 0.5% formic acid in 75% ACN/H2O (100 μl). Samples were analyzed assayed by LC/MS using a Waters Xevo TQ or TQD triple quadrupole mass spectrometer coupled to a Waters UPLC. Peptides were separated by HPLC (Supelco Ascentis Express Peptide ES C18 column, 50×2.1 mm, 2.7 μm) with 0.05% formic acid in H2O and ACN as solvents. Peptides were quantified by comparison to calibration standards (50-50,000 ng/ml).

NK1R [2] = molecular target: NK1R (Rattus norvegicus, UniProt P14600); experiment: NK1R endocytosis in rat spinal cord slices; type: cell-based; settings: Dy4 30 μM; SP 1 μM, 5 min
Sequence of NK1R (Rattus norvegicus, UniProt P14600) (P14600 whole entry): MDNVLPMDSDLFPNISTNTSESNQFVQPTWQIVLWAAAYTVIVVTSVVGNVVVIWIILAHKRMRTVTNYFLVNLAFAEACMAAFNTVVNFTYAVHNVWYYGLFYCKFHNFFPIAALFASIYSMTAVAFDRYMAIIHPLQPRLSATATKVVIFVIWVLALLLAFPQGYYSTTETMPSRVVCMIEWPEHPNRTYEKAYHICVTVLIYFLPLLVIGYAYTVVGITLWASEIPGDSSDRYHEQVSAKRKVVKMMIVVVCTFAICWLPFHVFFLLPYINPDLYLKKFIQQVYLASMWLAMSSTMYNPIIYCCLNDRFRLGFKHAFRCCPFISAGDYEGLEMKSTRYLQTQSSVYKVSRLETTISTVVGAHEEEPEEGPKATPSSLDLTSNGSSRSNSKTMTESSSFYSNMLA

NK1R [3] = experiment: NK1R endocytosis in neurons of mouse dorsal horn; type: in vivo; settings: intrathecal
CLR plus RAMP1 = molecular target: T2, CLR plus RAMP1 (Homo sapiens, UniProt O60894+Q16602); experiment: FRET ERK biosensors in HEK293 cells expressing CLR plus RAMP1; type: cell-based; settings: endocytic inhibitor plus CGRP
T2 construct: expressed in transfected cells; host or cells: HEK293 (transient)
T2 sequence (Q16602 23-461): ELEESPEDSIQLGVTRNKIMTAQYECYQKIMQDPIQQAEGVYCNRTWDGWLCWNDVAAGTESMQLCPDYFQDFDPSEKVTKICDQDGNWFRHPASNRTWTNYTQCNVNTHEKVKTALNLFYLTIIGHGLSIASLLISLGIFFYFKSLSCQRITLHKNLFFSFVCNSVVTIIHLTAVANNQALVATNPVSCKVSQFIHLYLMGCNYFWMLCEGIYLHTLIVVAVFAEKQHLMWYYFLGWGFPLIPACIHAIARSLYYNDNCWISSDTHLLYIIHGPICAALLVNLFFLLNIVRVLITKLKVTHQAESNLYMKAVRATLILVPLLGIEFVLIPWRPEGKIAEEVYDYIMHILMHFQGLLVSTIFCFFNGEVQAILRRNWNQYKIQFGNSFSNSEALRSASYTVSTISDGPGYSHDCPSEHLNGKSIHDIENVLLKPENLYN
T2 sequence (O60894 27-148): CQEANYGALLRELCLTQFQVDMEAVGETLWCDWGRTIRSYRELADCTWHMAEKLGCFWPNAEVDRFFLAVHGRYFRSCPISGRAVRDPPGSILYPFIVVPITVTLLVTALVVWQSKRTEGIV
Experimental: as §1

| SMILES | effect on isoprenaline-induced activation of nuclear ERK (β2-adrenergic receptor) | stability after intrathecal injection to mice [1] | effect on SP-stimulated NK1R endocytosis in spinal cord slices (NK1R [2]) | effect on capsaicin-, formalin- and CFA-evoked NK1R endocytosis in mouse dorsal horn neurons (NK1R [3]) | effect on CGRP activation of cytosolic ERK (CLR plus RAMP1) | effect on CGRP activation of nuclear ERK (CLR plus RAMP1) |
| --- | --- | --- | --- | --- | --- | --- |
| CC(=O)N[C@@H](CC(=O)O[C@H]1CC[C@@]2(C)[C@@H](CC[C@@H]3[C@@H]2CC[C@]2(C)[C@@H]([C@H](C)CCCC(C)C)CC[C@@H]32)C1)C(=O)NCCOCCOCCOCCOCCC(=O)NCCOCCOCCOCCC(=O)NCCOCCOCCOCCOCCC(=O)N[C@H](CCCNC(=N)N)C(=O)N1CCC[C@H]1C(=O)N[C@@H](CCCCN)C(=O)N1CCC[C@H]1C(=O)N[C@@H](CCC(N)=O)C(=O)N[C@@H](CCC(N)=O)C(=O)N[C@H](Cc1c[nH]c2ccccc12)C(=O)N[C@@H](Cc1ccccc1)C(=O)N[C@H](Cc1c[nH]c2ccccc12)C(=O)N[C@@H](CC(C)C)C(=O)N[C@@H](CC(C)C)C(N)=O [Compound 1] (Ac-D(X1)[PEG4][PEG3][PEG4][dR]PKPQQ[dW]F[dW]LL-NH2) | did not affect | stable |  |  |  |  |
| O=C(N/N=C/c1cc(O)c(O)cc1O)c1cc2ccccc2cc1O [Dy4] |  |  | prevented | inhibited | prevented activation of nuclear but not cytosolic ERK | prevented activation of nuclear but not cytosolic ERK |
